Target: Glutamate--tRNA ligase (Escherichia coli) (UniProt P04805)
Assay: Compound was tested for the inhibition of Escherichia coli glutamyl-t-RNA synthetase; NI means No inhibition; call rule not given here

Sequence of Glutamate--tRNA ligase (Escherichia coli) (P04805 whole entry, looked up): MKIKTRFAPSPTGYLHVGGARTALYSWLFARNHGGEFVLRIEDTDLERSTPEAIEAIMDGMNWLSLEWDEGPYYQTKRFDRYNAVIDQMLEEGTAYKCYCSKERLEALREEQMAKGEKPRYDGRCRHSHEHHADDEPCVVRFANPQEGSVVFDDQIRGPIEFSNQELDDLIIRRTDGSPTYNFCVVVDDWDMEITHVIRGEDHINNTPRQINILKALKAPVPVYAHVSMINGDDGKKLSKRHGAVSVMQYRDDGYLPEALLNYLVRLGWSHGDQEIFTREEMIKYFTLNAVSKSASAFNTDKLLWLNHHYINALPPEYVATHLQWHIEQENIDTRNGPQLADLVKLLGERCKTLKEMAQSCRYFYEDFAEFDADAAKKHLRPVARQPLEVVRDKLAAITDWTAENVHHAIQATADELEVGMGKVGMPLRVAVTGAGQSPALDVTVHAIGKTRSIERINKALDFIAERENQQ

- Ki: Not Active
Compound: CCCCCCCCOC(=O)C(N)CCC(=O)O (stereo unspecified)
